{"source": "ChEMBL document CHEMBL1687741", "about": "“Population pharmacokinetics of lumefantrine in pregnant women treated with artemether-lumefantrine for uncomplicated Plasmodium falciparum malaria” (Antimicrob Agents Chemother, 2009)", "type_in_all_cases": "ADME, organism-based", "key": {"[1]": {"assay": "Cmax in pregnant human patient with uncomplicated multidrug-resistant Plasmodium falciparum malaria at 120 mg, po administered as 4 tablets BID for 4 days coadministered with 20 mg artemether by two-compartment population pharmacokinetic model", "parameters": "dose 120 mg, route oral", "details": "female, in vivo"}, "[2]": {"assay": "Cmax in pregnant human patient with uncomplicated multidrug-resistant Plasmodium falciparum malaria at 120 mg, po administered as 4 tablets BID for 5 days coadministered with 20 mg artemether measured after 7 days by two-compartment population pharmacokinetic model", "parameters": "dose 120 mg, route oral", "details": "female, in vivo"}, "Homo sapiens [3]": {"test_system": "Homo sapiens", "assay": "Absorption rate constant in pregnant human patient with uncomplicated multidrug-resistant Plasmodium falciparum malaria at 120 mg, po administered as 4 tablets BID for 3 days coadministered with 20 mg artemether by two-compartment population pharmacokinetic model", "details": "in vivo, 72 h"}, "Homo sapiens [4]": {"test_system": "Homo sapiens", "assay": "Clearance in pregnant human patient with uncomplicated multidrug-resistant Plasmodium falciparum malaria at 120 mg, po administered as 4 tablets BID for 3 days coadministered with 20 mg artemether by two-compartment population pharmacokinetic model", "details": "in vivo, 72 h"}, "[5]": {"assay": "Cmax in pregnant human patient with uncomplicated multidrug-resistant Plasmodium falciparum malaria at 120 mg, po administered as 4 tablets BID for 3 days coadministered with 20 mg artemether by two-compartment population pharmacokinetic model", "parameters": "dose 120 mg, route oral", "details": "female, in vivo"}, "Homo sapiens [6]": {"test_system": "Homo sapiens", "assay": "Intercompartmental clearance in pregnant human patient with uncomplicated multidrug-resistant Plasmodium falciparum malaria at 120 mg, po administered as 4 tablets BID for 3 days coadministered with 20 mg artemether by two-compartment population pharmacokinetic model", "details": "in vivo, 72 h"}, "Homo sapiens [7]": {"test_system": "Homo sapiens", "assay": "Volume of distribution at steady state in pregnant human patient with uncomplicated multidrug-resistant Plasmodium falciparum malaria at 120 mg, po administered as 4 tablets BID for 3 days coadministered with 20 mg artemether by two-compartment population pharmacokinetic model", "details": "in vivo, 72 h"}, "[8]": {"assay": "Drug concentration in pregnant human patient with reappeared uncomplicated multidrug-resistant Plasmodium falciparum malaria infection at 120 mg, po administered as 4 tablets BID for 3 days coadministered with 20 mg artemether", "details": "female, in vivo, read-out: Drug uptake"}, "[9]": {"assay": "Cmax in capillary plasma of pregnant human patient with uncomplicated multidrug-resistant Plasmodium falciparum malaria at 120 mg, po administered as 4 tablets BID for 5 days coadministered with 20 mg artemether measured on 7 days by two-compartment population pharmacokinetic model", "parameters": "dose 120 mg, route oral", "details": "female"}, "[10]": {"assay": "Cmax in pregnant human patient with uncomplicated multidrug-resistant Plasmodium falciparum malaria at 120 mg, po administered as 4 tablets BID for 4 days coadministered with 20 mg artemether measured after 7 days by two-compartment population pharmacokinetic model", "parameters": "dose 120 mg, route oral", "details": "female, in vivo"}, "[11]": {"assay": "Drug concentration in pregnant human with uncomplicated multidrug-resistant Plasmodium falciparum malaria infection at 120 mg, po administered as 4 tablets BID for 3 days coadministered with 20 mg artemether", "details": "female, in vivo, read-out: Drug uptake"}, "[12]": {"assay": "Terminal elimination half-life in pregnant human patient with uncomplicated multidrug-resistant Plasmodium falciparum malaria at 120 mg, po administered as 4 tablets BID for 3 days coadministered with 20 mg artemether by two-compartment population pharmacokinetic model", "details": "female, in vivo, read-out: beta t1/2 (converted)"}, "Homo sapiens [13]": {"test_system": "Homo sapiens", "assay": "Tlag in pregnant human patient with uncomplicated multidrug-resistant Plasmodium falciparum malaria at 120 mg, po administered as 4 tablets BID for 3 days coadministered with 20 mg artemether measured after 7 days by two-compartment population pharmacokinetic model", "details": "in vivo"}, "Homo sapiens [14]": {"test_system": "Homo sapiens", "assay": "AUC (0 to infinity) in pregnant human patient with uncomplicated multidrug-resistant Plasmodium falciparum malaria at 120 mg, po administered as 4 tablets BID for 3 days coadministered with 20 mg artemether by two-compartment population pharmacokinetic model", "parameters": "dose 120 mg, time infinity, route oral", "details": "in vivo, 72 h"}, "Homo sapiens [15]": {"test_system": "Homo sapiens", "assay": "Apparent volume of distribution in pregnant human patient with uncomplicated multidrug-resistant Plasmodium falciparum malaria at 120 mg, po administered as 4 tablets BID for 3 days coadministered with 20 mg artemether by two-compartment population pharmacokinetic model", "details": "in vivo, 72 h"}, "[16]": {"assay": "Cmax in venous plasma of pregnant human patient with uncomplicated multidrug-resistant Plasmodium falciparum malaria at 120 mg, po administered as 4 tablets BID for 5 days coadministered with 20 mg artemether measured on 7 days by two-compartment population pharmacokinetic model", "parameters": "dose 120 mg, route oral", "details": "female"}, "Homo sapiens [17]": {"test_system": "Homo sapiens", "assay": "Apparent peripheral volume of distribution in pregnant human patient with uncomplicated multidrug-resistant Plasmodium falciparum malaria at 120 mg, po administered as 4 tablets BID for 3 days coadministered with 20 mg artemether by two-compartment population pharmacokinetic model", "details": "in vivo, 72 h"}, "[18]": {"assay": "Drug concentration in pregnant human patient with uncomplicated multidrug-resistant Plasmodium falciparum malaria at 120 mg, po administered as 4 tablets BID for 3 days coadministered with 20 mg artemether measured after 7 days by two-compartment population pharmacokinetic model", "details": "female, in vivo, read-out: Drug uptake"}, "[19]": {"assay": "Cmax in pregnant human patient with uncomplicated multidrug-resistant Plasmodium falciparum malaria at 120 mg, po administered as 4 tablets BID for 5 days coadministered with 20 mg artemether by two-compartment population pharmacokinetic model", "parameters": "dose 120 mg, route oral", "details": "female, in vivo"}, "[20]": {"assay": "Drug concentration in pregnant human patient with uncomplicated multidrug-resistant Plasmodium falciparum malaria at 120 mg, po administered as 4 tablets BID for 3 days coadministered with 20 mg artemether", "details": "female, in vivo, read-out: Drug uptake"}}}
{"molecule": "CCCCN(CCCC)CC(O)c1cc(Cl)cc2c1-c1ccc(Cl)cc1/C2=C/c1ccc(Cl)cc1", "note": "(stereo not given) [LUMEFANTRINE]", "values": [{"measurement": "Cmax", "setting": "[1]", "result": 2480, "unit": "ng/mL"}, {"measurement": "Cmax", "setting": "[2]", "result": 498, "unit": "ng/mL"}, {"measurement": "Ka", "setting": "Homo sapiens [3]", "result": 0.0588, "unit": "h⁻¹"}, {"measurement": "CL", "setting": "Homo sapiens [4]", "result": 6.11, "unit": "L/h"}, {"measurement": "Cmax", "setting": "[5]", "result": 2080, "unit": "ng/mL"}, {"measurement": "CL", "setting": "Homo sapiens [6]", "result": 1.82, "unit": "L/h"}, {"measurement": "Vz", "setting": "Homo sapiens [7]", "result": 181, "unit": "L"}, {"measurement": "concentration at 72 h", "setting": "[8]", "result": 126, "unit": "ng/mL"}, {"measurement": "Cmax", "setting": "[9]", "result": 433, "unit": "ng/mL"}, {"measurement": "Cmax", "setting": "[10]", "result": 314, "unit": "ng/mL"}, {"measurement": "concentration at 72 h", "setting": "[11]", "result": 136, "unit": "ng/mL"}, {"measurement": "half-life", "setting": "[12]", "result": 79.2, "unit": "h"}, {"measurement": "Time", "setting": "Homo sapiens [13]", "result": 1.67, "unit": "h"}, {"measurement": "AUC", "setting": "Homo sapiens [14]", "result": 472, "unit": "µg·h/mL"}, {"measurement": "Vz", "setting": "Homo sapiens [15]", "result": 20.2, "unit": "L"}, {"measurement": "Cmax", "setting": "[16]", "result": 49, "unit": "ng/mL"}, {"measurement": "Vp/F", "setting": "Homo sapiens [17]", "result": 160, "unit": "L"}, {"measurement": "concentration at 168 h", "setting": "[18]", "result": 391, "unit": "ng/mL"}, {"measurement": "Cmax", "setting": "[19]", "result": 2430, "unit": "ng/mL"}, {"measurement": "concentration at 72 h", "setting": "[20]", "result": 135, "unit": "ng/mL"}]}
